Data as given in US20230406883A1, “COMPOUNDS AND THEIR USE IN TREATMENT OF TACHYKININ RECEPTOR MEDIATED DISORDERS” (Embark Biotech ApS, priority 2020, published 2023).
Values joined by “and” are separate entries in the source; they are usually repeats but may differ in a detail not shown here. Identical values can stand only once. Like-named read-outs stand apart in the source and are kept apart here. Numbered stars: 1 amine (or outer) side, 2 acyl side, 3 side chain; on linkers, the order of the positions; unused ones are H or OH. Square brackets hold non-standard residues; d marks the D form. Peptide text beside a SMILES is read from it. * marks the point of attachment. C18 diacid = O=C(O)CCCCCCCCCCCCCCCCC(=O)*; γGlu = O=C(O)[C@H](CCC(=O)[*:2])N[*:1]; NMeL = CN[C@@H](CC(C)C)C(=O)O; hSer = N[C@@H](CCO)C(=O)O; Nle = CCCC[C@H](N)C(=O)O; AEEA = NCCOCCOCC(=O)O; Aib = CC(C)(N)C(=O)O

Tests used:
hNK1R = biological target: T1, hNK1R (Homo sapiens, UniProt P25103); assay: IP3 assay (inositol trisphosphate, 3H-myoinositol) in transiently transfected COS-7 cells; assay type: cell-based; settings: for EC50: 0.2% ovalbumin buffer
T1 construct: host or cells: COS-7
How it was run: (§1)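 COS-7 cells were transiently transfected with receptor plasmid and labelled with ³H-myo-inositol. Cells were lysed in formic acid, and ³H-inositol phosphates were captured on SPA YSI beads and counted.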

hNK2R [1] = biological target: T2, hNK2R (Homo sapiens, UniProt P21452); assay: as above; assay type: cell-based; settings: for EC50: 0.2% ovalbumin buffer
T2 construct: host or cells: COS-7
T2 sequence (P21452 1-398): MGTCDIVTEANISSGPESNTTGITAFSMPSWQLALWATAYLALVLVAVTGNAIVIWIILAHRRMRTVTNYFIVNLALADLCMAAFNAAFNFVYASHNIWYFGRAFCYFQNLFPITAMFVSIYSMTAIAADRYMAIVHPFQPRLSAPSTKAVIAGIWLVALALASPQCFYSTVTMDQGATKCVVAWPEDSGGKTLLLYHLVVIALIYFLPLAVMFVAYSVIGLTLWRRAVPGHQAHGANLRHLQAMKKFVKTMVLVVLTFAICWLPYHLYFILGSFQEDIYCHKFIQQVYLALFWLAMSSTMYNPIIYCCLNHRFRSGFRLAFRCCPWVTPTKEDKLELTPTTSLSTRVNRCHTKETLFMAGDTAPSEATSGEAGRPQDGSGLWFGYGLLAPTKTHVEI
How it was run: as §1

hNK3R = biological target: T3, hNK3R (Homo sapiens, UniProt P29371); assay: as above; assay type: cell-based
T3 construct: host or cells: COS-7
T3 sequence (P29371 1-465): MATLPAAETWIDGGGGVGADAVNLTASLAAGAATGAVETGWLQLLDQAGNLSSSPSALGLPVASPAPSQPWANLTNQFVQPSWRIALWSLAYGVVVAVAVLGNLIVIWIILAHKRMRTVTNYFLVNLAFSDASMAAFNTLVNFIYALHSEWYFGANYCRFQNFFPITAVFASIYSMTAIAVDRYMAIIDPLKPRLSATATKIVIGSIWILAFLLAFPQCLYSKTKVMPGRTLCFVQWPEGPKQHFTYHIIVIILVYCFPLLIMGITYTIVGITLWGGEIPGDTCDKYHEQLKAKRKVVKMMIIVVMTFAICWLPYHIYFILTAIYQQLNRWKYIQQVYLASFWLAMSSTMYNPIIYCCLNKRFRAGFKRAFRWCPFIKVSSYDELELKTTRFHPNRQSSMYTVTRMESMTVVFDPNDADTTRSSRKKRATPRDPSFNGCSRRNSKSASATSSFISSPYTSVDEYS
How it was run: as §1

hNK2R [2] = biological target: T2, hNK2R; assay: 3H-NKA competitive binding on transfected COS-7 cells; settings: competition with 3H-NKA, 4 h at 4 C
Procedure: (§2) Assays were carried out using COS-7 cells transiently transfected by calcium phosphate transfection with a vector pcDNA3.1(+) encoding one of the indicated receptors (Genscript). Briefly, DNA mixed with CaCl2 (2 M) and TE-buffer (10 mM Tris-HCl, 1 mM EDTA, pH 7.5) was dropwise added to 2×HBS (50 mM HEPES, 280 mM NaCl, 1.5 mM NaH2PO4, pH 7.2) and incubated for 45 min at room temperature (22±2° C.). The mixture and a final concentration of 100 μM Chloroquine were added to the cells and left to incubate for 5 hours at 37° C. under standard cell culture conditions (10% CO2) before changing medium to fresh maintenance medium.
The ^3H-NKA binding assay measures peptide-receptor binding by a competitive principle of receptor binding between radioactively labelled (3H) NKA (tracer) and synthesized peptide ligands on live cells expressing the receptor of interest. Assay solutions used: TKR buffer (50 mM Tris/HCl pH 7.5, 5 mM MnCl2, and 150 mM NaCl), wash buffer (TKR buffer+0.2% w/v OvAlb), binding buffer (wash buffer+0.1 mg/ml Bacitracin), and tracer solution (binding buffer+˜15000 cpm/well ^3H-tracer). The assay was performed on ice the day after transfection.
Briefly, maintenance medium was aspirated, and plates were washed ×1 in cold wash buffer before adding 100 μl cold binding buffer and placing at 4° C. to let plates cool. The cold plates were added indicated peptides (ligand) immediately followed by addition of cold tracer solution (˜15000 cpm/well). Plates were immediately moved to 4° C. and incubated for 4 hours. After incubation, binding was stopped by wash ×2 with cold wash buffer before adding 225 μl Ultima Gold XR. Plates were shaken at medium speed for approximately 30 min and left overnight at room temperature before counting the plates in a MicroBeta plate counter (Perkin Elmer).

hNK2R [3] = biological target: T2, hNK2R; assay: Hithunter cAMP assay (Gs-coupling) in transfected COS-7 cells; assay type: cell-based
Procedure: as §2, with “As a secondary measure of agonist-induced G-protein coupled receptor (GPCR) activation cyclin adenosine monophosphate (cAMP) was measured by the Hithunter cAMP-assay from DiscoverX. Assays” for “Assays”
The cAMP-assay takes advantage of the tachykinin receptors' ability to induce production of the cAMP second messenger upon agonist (ligand) binding on receptor expressing cells. Production of cAMP stems from receptor coupling to Gs-protein although coupling to Gq-protein (IP3-production) is considered the primary signalling mechanism by tachykinin receptors.
The assay was performed the day after transfection. Briefly, maintenance medium was aspirated, and plates were washed ×1 in HBSS before adding assay buffer (HBSS+1 mM IBMX), pre-incubated for 30 min at 37° C. followed by 15 min incubation with agonist (ligand) at 37° C. After incubation, plates were subjected to cell lysis and anti-cAMP-antibody incubation as described by manufacturer. Luminescence was measured with EnVision Multimode Plate Reader from Perkin Elmer.

[4] = COS-7 cells, figure legends: percent of 10^-6 M NKA

T1 sequence (P25103 whole entry): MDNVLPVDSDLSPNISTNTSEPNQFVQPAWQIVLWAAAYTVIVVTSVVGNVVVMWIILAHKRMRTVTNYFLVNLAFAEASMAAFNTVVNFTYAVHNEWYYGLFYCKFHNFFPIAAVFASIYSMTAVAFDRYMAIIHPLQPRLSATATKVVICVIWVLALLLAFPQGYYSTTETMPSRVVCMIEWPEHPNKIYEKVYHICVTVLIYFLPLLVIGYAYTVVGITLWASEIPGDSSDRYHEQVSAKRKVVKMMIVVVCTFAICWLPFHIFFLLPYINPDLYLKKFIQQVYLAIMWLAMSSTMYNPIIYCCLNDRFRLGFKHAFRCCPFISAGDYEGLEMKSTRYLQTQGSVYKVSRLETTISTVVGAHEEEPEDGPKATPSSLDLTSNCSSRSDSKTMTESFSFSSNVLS

Row | Structure (SMILES) | EC50 (hNK1R; COS-7 cells) | hNK1R, IP3 Efficacy (hNK1R; [4]) | EC50 (hNK2R [1]; COS-7 cells) [nM] | hNK2R, IP3 Efficacy (hNK2R [1]; [4]) | hNK3, IP3 Efficacy (hNK3R; [4]) [%] | EC50 (hNK2R [2]) [nM] | EC50 (hNK2R [3]; COS-7 cells) [nM] | hNK2R, cAMP Efficacy (hNK2R [3]; COS-7 cells) [%] | hNK1R, IP3 Efficacy (hNK1R) [%] | hNK2R, IP3 Efficacy (hNK2R [1]) [%] | hNK3, IP3 Efficacy (hNK3R) [%] | hNK2R, cAMP Efficacy (hNK2R [3]) [%] | EC50 (hNK3R; COS-7 cells, 0.2% ovalbumin buffer, read-out: hNK3, IP3 EC50) [nM]
1 | CCCC[C@H](NC(=O)[C@H](CC(C)C)NC(=O)CNC(=O)[C@@H](NC(=O)[C@H](Cc1ccc(O)cc1)NC(=O)[C@H](CCCCN)NC(=O)[C@H](CC(=O)O)NC(=O)COCCOCCNC(=O)COCCOCCNC(=O)CC[C@H](NC(=O)CCCCCCCCCCCCCCCCC(=O)O)C(=O)O)C(C)C)C(N)=O [compound 392, *Asp;Lys;Tyr;Val;Gly;Leu;Nle;NH2] ({C18 diacid-γGlu-AEEA-AEEA}-DKYVGL[Nle]-NH2) | 205 nM and 200 nM | 52% and 30% | 5.4 | 72% and 70% | 0 | 25 | – | – | – | – | – | – | –
2 | CC(C)C[C@@H](C(=O)N[C@@H](Cc1ccccc1)C(N)=O)N(C)C(=O)CNC(=O)[C@@H](NC(=O)[C@H](Cc1ccc(O)cc1)NC(=O)[C@H](CCCCN)NC(=O)[C@H](CC(=O)O)NC(=O)COCCOCCNC(=O)COCCOCCNC(=O)CC[C@H](NC(=O)CCCCCCCCCCCCCCCCC(=O)O)C(=O)O)C(C)C [compound 353, *Asp;Lys;Tyr;Val;Gly;NmLeu;Phe;NH2] ({C18 diacid-γGlu-AEEA-AEEA}-DKYVG[NMeL]F-NH2) | – | 20% | 2.5 | 90% | 0 | 27 | ~1.3 | 50 | – | – | – | – | –
3 | CCCC[C@H](NC(=O)[C@H](CC(C)C)NC(=O)C(C)(C)NC(=O)[C@@H](NC(=O)[C@H](Cc1ccc(O)cc1)NC(=O)[C@H](CCCCN)NC(=O)[C@H](CC(=O)O)NC(=O)COCCOCCNC(=O)COCCOCCNC(=O)CC[C@H](NC(=O)CCCCCCCCCCCCCCCCC(=O)O)C(=O)O)C(C)C)C(N)=O [compound 395, *Asp;Lys;Tyr;Val;Aib;Leu;Nle;NH2] ({C18 diacid-γGlu-AEEA-AEEA}-DKYV[Aib]L[Nle]-NH2) | – | – | 9 | – | – | ~104 | – | – | 0 | 68 | 0 | 0 | –
4 | COCC[C@H](NC(=O)[C@H](CC(C)C)NC(=O)[C@@H](CO)NC(=O)[C@@H](NC(=O)[C@H](Cc1ccc(O)cc1)NC(=O)[C@H](CCCCN)NC(=O)[C@H](CC(=O)O)NC(=O)COCCOCCNC(=O)COCCOCCNC(=O)CC[C@H](NC(=O)CCCCCCCCCCCCCCCCC(=O)O)C(=O)O)C(C)C)C(N)=O [compound 396, *Asp;Lys;Tyr;Val;dSer;Leu;Metox;NH2] ({C18 diacid-γGlu-AEEA-AEEA}-DKYV[dS]L[hSer](Me)-NH2) | – | 0% | 20 | 92% | 0 | 316 | – | – | – | – | – | – | –
5 | COCC[C@H](NC(=O)[C@H](CC(C)C)N(C)C(=O)CNC(=O)[C@@H](NC(=O)[C@H](Cc1ccc(O)cc1)NC(=O)[C@H](CCCCN)NC(=O)[C@H](CC(=O)O)NC(=O)COCCOCCNC(=O)COCCOCCNC(=O)CC[C@H](NC(=O)CCCCCCCCCCCCCCCCC(=O)O)C(=O)O)[C@@H](C)O)C(N)=O [compound 366, *Asp;Lys;Tyr;Thr;Gly;NmLeu;Metox;NH2] ({C18 diacid-γGlu-AEEA-AEEA}-DKYTG[NMeL][hSer](Me)-NH2) | – | 0% | 12 | 100% | 0 | ~104 | ~120 | 80 | – | – | – | – | –
6 | CSCC[C@H](NC(=O)[C@H](CC(C)C)N(C)C(=O)CNC(=O)[C@@H](NC(=O)[C@H](Cc1ccc(O)cc1)NC(=O)[C@H](CCCCN)NC(=O)[C@H](CC(=O)O)NC(=O)COCCOCCNC(=O)COCCOCCNC(=O)CC[C@H](NC(=O)CCCCCCCCCCCCCCCCC(=O)O)C(=O)O)C(C)C)C(N)=O [compound 316, *Asp;Lys;Tyr;Val;Gly;NmLeu;Met;NH2] ({C18 diacid-γGlu-AEEA-AEEA}-DKYVG[NMeL]M-NH2) | 20 nM | 100% | 12 | 120% | 50 | 41 | 20 | 100 | – | – | – | – | ~160
7 | COCC[C@H](NC(=O)[C@H](CC(C)C)NC(=O)CNC(=O)[C@@H](NC(=O)[C@H](Cc1ccc(O)cc1)NC(=O)[C@H](CCCCN)NC(=O)[C@H](CC(=O)O)NC(=O)COCCOCCNC(=O)COCCOCCNC(=O)CC[C@H](NC(=O)CCCCCCCCCCCCCCCCC(=O)O)C(=O)O)C(C)C)C(N)=O [compound 393, *Asp;Lys;Tyr;Val;Gly;Leu;Metox;NH2] ({C18 diacid-γGlu-AEEA-AEEA}-DKYVGL[hSer](Me)-NH2) | 342 nM and 3400 nM | 52% | 10 | 100% | 36 | 40 | – | – | 50 | – | 30 | – | –
